Measured values published in paper PMC9865397, “Colon-Targeted Trans-Cinnamic Acid Ameliorates Rat Colitis by Activating GPR109A” (Pharmaceutics, 2022).

What was measured:
DNBS-induced rat colitis = test: DNBS-induced rat colitis, anti-colitic effects; type: in vivo; conditions: for colonic damage (CDS) / CINC-3 level in inflamed distal colon / MPO activity in inflamed distal colon / iNOS and COX-2 protein levels in inflamed distal colon: oral once per day for 6 days, tCA 30 mg/kg; for colonic damage (CDS): tCA-GA equivalent to 15 (L) and 30 (H) mg/kg tCA, SSZ 30 mg/kg; for CINC-3 level in inflamed distal colon / MPO activity in inflamed distal colon / iNOS and COX-2 protein levels in inflamed distal colon: tCA-GA L and H
Protocol: For an animal experiment to evaluate the anti-colitic effects of drugs, six groups (n = 5 rats per group) were made and treated via oral gavage as follows: normal group, 1.0 mL of phosphate buffered saline (pH 7.4, PBS); colitis group, 1.0 mL of PBS; tCA-treated colitis group, tCA (30 mg/kg) in 1.0 mL of PBS; tCA-GA-treated colitis group (L), tCA-GA (28 mg/kg, equivalent to 15 mg/kg of tCA) in 1.0 mL of PBS; tCA-GA-treated colitis group (H), tCA-GA (56 mg/kg, equivalent to 30 mg/kg of tCA) in 1.0 mL of PBS; SSZ-treated colitis group, SSZ (30 mg/kg) in 1.0 mL of PBS. For the other experiment to evaluate GPR109A-dependent anti-colitic effects of tCA-GA, five groups (n = 5 rats per group) were made and treated via oral gavage as follows: normal group, 1.0 mL of PBS; colitis group, 1.0 mL of PBS; tCA-GA-treated colitis group, tCA-GA (28 mg/kg) in 1.0 mL of PBS; tCA-GA + MPZ-treated colitis group, tCA-GA (28 mg/kg) and MPZ (2 mg/kg) in 1.0 mL of PBS; MPZ-treated colitis group, MPZ (2 mg/kg) in 1.0 mL of PBS.
DNBS-mediated colitis was induced in rats as described previously. Additionally, 3 days after the induction of colitis, the drugs were administered once per day for 6 days as in Section 2.10. The rats were killed to obtain the inflamed distal colon. The colonic damage score (CDS), assessing pathological state in colon tissue and neighbor organs ascribed to DNBS-induced inflammation, was calculated according to the criteria set previously. For histological evaluation, fixed colon tissues were embedded in paraffin, sections with a thickness of 4 μm were cut and stained with hematoxylin and eosin (H&E). The sections were examined under a light microscope (Olympus BX43, Olympus Co., Tokyo, Japan). Myeloperoxidase (MPO) activity was measured as described previously.
(§1) Changes in levels of the proteins were monitored using Western blotting. Cell lysates and tissue lysates of the distal colon were prepared for Western blot analysis as described previously. To determine the protein concentrations in the lysates, bicinchoninic acid reagent (Thermo Fisher Scientific, Waltham, MA, USA) was used according to the manufacturer’s instructions. SDS-PAGE (10 or 7.5% gels) was used to separate and analyze the proteins in the sample lysates. Anti-cyclooxygenase (COX-2, sc-365374, Santa Cruz Biotechnology, Dallas, TX, USA) and anti-inducible nitric oxide synthase (iNOS) antibodies (sc-7271, Santa Cruz Biotechnology) were used to detect COX-2 and iNOS proteins, respectively. Horseradish peroxidase-conjugated secondary antibodies (Santa Cruz Biotechnology) were used to label the primary antibodies. The protein bands in membranes were visualized using the SuperSignal chemiluminescence substrate (Thermo Fisher Scientific, Waltham, MA, USA). As a loading control, α-tubulin was detected using an anti-α-tubulin antibody (Santa Cruz Biotechnology). Intensity of Western blots was quantified using Image Lab software (version 5.2 build 14, Bio-Rad, Hercules, CA, USA). The mean values (n = 3 for cell experiments, n = 5 for animal experiments) were shown under the blots in figures. Original images of Western blots are shown in Supplementary Data S1.
The distal colon samples (0.1 g) obtained from rats were minced in a potassium phosphate buffer (pH 6.0, 1.0 mL), homogenized using a T10 basic/IKA homogenizer (ULTRA-TURRAX®, Staufen im Breisgau, Germany), and centrifuged at 10,000× g for 10 min at 4 °C. The levels of CINC-3 and IL-10 were determined in the samples using ELISA kits, according to the manufacturer’s instructions.

RAW 264.7 cells = test: LPS-stimulated RAW 264.7 cells: IL-10, COX-2 and iNOS levels; type: cell-based, murine
Protocol: as §1

[1] = Distribution coefficient (log D6.8), n-octanol/buffer pH 6.8; type: physicochemical; conditions: n-octanol/buffer (pH 6.8) system; read-out: distribution coefficient (DC, log D6.8)
Protocol: (§2) Distribution coefficients (log D6.8) of tCA, tCA-AA, and tCA-GA were measured as described previously. The concentrations of drugs were determined using a UV-Vis spectrophotometer (Shimadzu, Tokyo, Japan) at 277 nm, and log D6.8 was calculated using the equation reported previously. The chemical stabilities of tCA-GA and tCA-AA were analyzed in HCl-NaCl buffer (pH 1.2) and pH 6.8 isotonic phosphate buffer, representing the physiological pH of the stomach and small intestine, respectively. Each drug (0.1 mM) dissolved in the buffers was incubated for at least 12 h, and change in the concentrations of the drugs was monitored using HPLC analysis.

Caco-2 cell monolayer = Caco-2 cell monolayer permeability assay; type: in vitro ADME, Human; conditions: 1.2 mM on apical side, up to 24 h, compared with tCA
Protocol: Caco-2 cells were seeded at 1 × 10^5 cells per insert in Transwell inserts with a pore size of 0.4 μm (SPL Inc., Houston, TX, USA). DMEM, containing 10% FBS and 1% penicillin/streptomycin, was added to the basolateral (well) (1 mL) and apical (insert) compartments (0.2 mL). The cells were grown until the trans-epithelial electrical resistance value (EMD Millipore, Billerica, MA, USA) of the cell monolayer reached 2000 Ω cm^2. After removing the culture medium, tCA and its derivatives (1.2 mM) dissolved in DMEM (0.2 mL) without phenol red and were placed on the apical side of the cell monolayer. At appropriate time intervals, the concentrations of the drugs on the basolateral side filled with DMEM (1.0 mL) were determined using HPLC.

[2] = Chemical stability in pH 1.2 and pH 6.8 buffers; type: physicochemical; conditions: incubation for up to 10 h
Protocol: as §2, with “Each drug (0.1 mM) dissolved in the buffers was incubated for at least 12 h, and change in the concentrations of the drugs was monitored using HPLC analysis.” left out

[3] = Stability in small intestinal contents; type: in vitro ADME; conditions: rat small intestinal contents, up to 10 h
Protocol: (§3) Male Sprague–Dawley (SpD) rats (250–260 g) were killed using CO2 gas. The proximal small intestinal, distal small intestinal, and cecal contents were collected separately and suspended in pH 6.8 isotonic phosphate buffer to prepare a 20% w/v suspension. tCA-GA and tCA-AA (10 mM) dissolved in pH 6.8 isotonic phosphate buffer (4 mL) were added to the suspension (4 mL) and incubated at 37 °C. To maintain anaerobic conditions, the collection of cecal contents and incubation of the conjugates in the cecal contents were conducted in a nitrogen gas bag (Sigma-Aldrich, Burlington, MA, USA). At appropriate time intervals, a portion of the mixture (0.5 mL), pipetted using a wide-orifice tip, was centrifuged in a microtube. After acidification (with 1.0 M HCl) of the supernatant (0.3 mL), EA was added and vigorously mixed. The organic layer (0.2 mL) was retrieved and evaporated. The residue, dissolved in the mobile phase (0.2 mL), was filtered and subjected to HPLC analysis. Centrifugation was conducted at 10,000× g for 10 min at 4 °C.

[4] = Conversion of conjugates to tCA in cecal contents under nitrogen; type: in vitro ADME; conditions: rat cecal contents under nitrogen
Protocol: as §3

[5] = Cleavage test with autoclaved cecal contents; type: in vitro ADME, rat; conditions: up to 24 h
[6] = tCA-GA 28 mg/kg oral once per day for 6 days (MPZ experiment)
[7] = RAW 264.7, LPS, MPZ 100 µM with tCA

| logD [1] | change in concentration in buffers (pH 1.2, 6.8) [2] | change in concentration in small intestinal contents [3] | stability in autoclaved cecal contents [5] | Compound | colonic damage (CDS) (DNBS-induced rat colitis) | CINC-3 level in inflamed distal colon (DNBS-induced rat colitis) | MPO activity in inflamed distal colon (DNBS-induced rat colitis) | iNOS and COX-2 protein levels in inflamed distal colon (DNBS-induced rat colitis) | permeation through the Caco-2 cell monolayer (Caco-2 cell monolayer) | further results |
| --- | --- | --- | --- | --- | --- | --- | --- | --- | --- | --- |
| – | – | – | – | O=C(O)c1cc(/N=N/c2ccc(S(=O)(=O)Nc3ccccn3)cc2)ccc1O [SSZ, sulfasalazine, reference compound] | tCA was as effective as SSZ | – | – | – | – | – |
| – | – | – | – | O=C(O)/C=C/c1ccccc1 [tCA, trans-cinnamic acid] | ameliorated colonic damage | lowered | lowered MPO activity | lowered | – | LPS-induced COX-2 and iNOS protein levels (RAW 264.7 cells; RAW 264.7, LPS 24 h, tCA pretreatment 1 h): reduced the levels of COX-2 and iNOS; IL-10 level in cell culture supernatant (RAW 264.7 cells; RAW 264.7, LPS, tCA 2 mM / 5 mM): increased the level of IL-10 |
| -0.98 | no notable changes in the concentrations | no notable changes in the concentrations | remained intact for up to 24 h | O=C(O)CC[C@H](NC(=O)/C=C/c1ccccc1)C(=O)O [tCA-GA, N-Cinnamoyl-L-Glutamic Acid] | significantly more effective than tCA at mitigating pathological changes | lowered | lowered MPO activity | lowered | substantially delayed the permeation of tCA through the cell monolayer | conversion rate to tCA [4]: higher than that of tCA-AA to tCA; H&E staining, mucosal layer of distal colon (DNBS-induced rat colitis; both doses of tCA-GA, greater than tCA and SSZ): recovered the mucosal layer of the distal colon; IL-10 level in inflamed colon (DNBS-induced rat colitis; first experiment (Supplementary Data S6), more effective than oral tCA): increased the levels of IL-10 in the inflamed colon; IL-10 level in inflamed colon (DNBS-induced rat colitis; [6]): increased the levels of IL-10 in the inflamed colon; colonic damage incl. colon length shortening (DNBS-induced rat colitis; [6]): substantially alleviates colonic damage; colonic inflammation (MPO activity, CINC-3, iNOS, COX-2 in distal colon) (DNBS-induced rat colitis; [6]): markedly suppressed |
| – | – | – | – | C[N+]1(C)CCCC(OC(=O)C(O)(c2ccccc2)c2ccccc2)C1 (centres unmarked) [MPZ, mepenzolate, reference compound] | – | – | – | – | – | inflammatory state after single treatment (DNBS-induced rat colitis; MPZ 2 mg/kg alone, oral, 6 days): inflammatory state similar to that induced by the DNBS control; effect of co-administered MPZ on colonic damage and inflammation (DNBS-induced rat colitis; MPZ 2 mg/kg co-administered with tCA-GA 28 mg/kg, oral, 6 days): significantly compromised the beneficial effects of tCA-GA; effect of co-administered MPZ on IL-10 level in inflamed colon (DNBS-induced rat colitis; MPZ 2 mg/kg combined with tCA-GA 28 mg/kg, oral, 6 days): significantly suppressed the increase in the levels of IL-10; effect of MPZ on tCA suppression of COX-2 and iNOS (RAW 264.7 cells; [7]): undermined the suppressive effects of tCA; effect of MPZ on tCA-increased IL-10 level (RAW 264.7 cells; [7]): significantly suppressed by MPZ |
| -0.61 | no notable changes in the concentrations | no notable changes in the concentrations | remained intact for up to 24 h | O=C(O)C[C@H](NC(=O)/C=C/c1ccccc1)C(=O)O [tCA-AA, N-Cinnamoyl-L-Aspartic Acid] | – | – | – | – | substantially delayed the permeation of tCA through the cell monolayer | – |
